pEC50, pIC50: −log10 of the molar value.
Experiments:
PCSK9 [1] = target: T1, PCSK9 (Homo sapiens, UniProt Q8NBP7, G670E/V474I); assay: biochemical
[2] = target: T2, potassium ion channel hERG (Homo sapiens, UniProt Q12809); assay: Assay 5 hERG assay (patch clamp, CHO cells over-expressing hERG); assay type: cell-based; details: SyncroPatch 384PE, room temperature, geometric mean, read-out: Assay 5 (hERG Hu CHO if EPh CR-Syncro) GMean IC50
T2 construct: expressed in transfected cells; host or cells: Chinese hamster ovary K1 (CHO)
Method: This assay (human Ether-d-go-go-Related Gene) measures activity of the compounds at the potassium ion channel hERG (human Ether-d-go-go-Related Gene).
Experiments were performed on the SyncroPatch 384PE high throughput patch clamp platform at room temperature and medium resistance chips with 4 patch holes per site. Chinese hamster ovary K1 (CHO) cell lines over-expressing the ion channel of choice (hERG) were used in assay-ready format and kept in liquid nitrogen or were used from live culture. Cells were either thawed and diluted in HBSS or were detached from flasks and resuspended in HBSS. HBSS comprised 140 mM NaCl, 4 mM KCl, 10 mM HEPES and 5 mM Glucose (pH7.4). The internal patch clamp solution was KF 120 mM, KCl 20 mM, HEPES 10 mM, EGTA 10 mM, and 25 PM Escin (pH 7.2). After the sealing process was complete, the external solution was exchanged for external patch clamp solution comprising NaCl 80 mM, KCl 4 mM, HEPES 10 mM, CaCl2 2 mM, MgCl2 1 mM, glucose 5 mM, and NMDG 60 mM (pH 7.4). All solutions were stored at room temperature, except Escin, which was stored at 4° C. All test compounds were dispensed in greiner-bio 384 well plates and tested in a 6 point cumulative assay (final DMSO concentration 0.33%). Only wells that passed previously agreed acceptance criteria for this platform were used in this analysis (30 MegaOhm seal resistance, Z prime >0.4 and current size >0.2 nA). […]

PCSK9 [3] = target: T1, PCSK9; assay: Assay 3 PCSK9 LDL-C uptake assay in HepG2 cells; assay type: cell-based; design: TEV site (C); His6 (C); host or cells: added to HepG2 (ATCC #HB-8065); details: 125 nM PCSK9, pHrodo Red-LDL, read-out: Assay 3 LDL uptake potency
Excerpt: This assay measures for PCSK9 antagonist activity based on a test compound's capacity to restore LDL-C-uptake in HepG2 cells. The assay is based on exogenous PCSK9 and LDL-C complexed with a pH-sensitive dye. Outside the cells, at neutral pH, the pHrodo Red-LDL is dimly fluorescent but upon LDLR mediated endocytosis it fluoresces brightly. PCSK9 traffics the LDLR to intracellular degradation and reduces uptake of LDL-C. Inhibition of PCSK9 reduces LDLR degradation and the increased LDL-C uptake is quantified by fluorescence microscopy.
• Cell medium: MEM supplemented with 10% FBS, 1×NEAA and Sodium Pyruvate • Assay medium: OptiMem supplemented with penicillin/streptomycin • Cells: HepG2 (ATCC #HB-8065)
• 1. Cryopreserved HepG2 cells were thawed in assay medium and centrifuged for 5 min at 250 g. Supernatant was discarded and the cell pellet resuspended in cell medium and counted with a Nucleocounter. Cells were again centrifuged 5 min at 250 g and the pellet was resuspended to 500000 cells/mL in assay medium. • 2. 20 μL of above cell mix was dispensed into black μclear TC treated 384 well plates with Multidrop Combi and left at room temperature for 20 minutes. • 3. Plates were incubated at 37° C., 5% CO2 for 24 h
• 1. Test compounds were prepared in concentration response in DMSO with a half-log dilution factor in DMSO in Echo 384 LDV plates starting at 10 mM. • 2. 30 nL of above test compounds were dispensed with Echo 655 to cells for a top concentration of 10 μM • 3. 10 μL PCSK9 in assay medium was dispensed to cells with Multidrop Combi for 125 nM final concentration in the wells. • 4. Plates were incubated at 37° C., 5% CO2 for 24 h
• 1. 10 μL pHrodo Red-LDL in assay medium was dispensed to cells with Multidrop Combi for […] • 2. Plates were incubated at 37° C., 5% CO2 and imaged with the Incucyte S3 after 4 h and 24 h
Image data was processed using Incucyte 2021, a software to identify cells and red fluorescent intensity. Screener was used to further process data. Data was normalized as % effect of the signal between median values of the on-plate controls of DMSO and 100 nM Evolocumab according to the formula % effect=−100*(x−DMSO)/(Evolocumab−DMSO) where x equals the measured signal. Concentration response data of the normalized values were fitted using a four-parameter logistic fit.

[4] = target: GSK3β (Glycogen synthase kinase-3 beta) (Homo sapiens, UniProt P49841); assay: Assay 6 GSK3β assay (ThermoFisher Z-Lyte FRET); assay type: biochemical; details: ATP Conc: 10 μM, geometric mean; read-out: Assay 6 (GSK3β FRET-Z-Lyte Cr) GMean IC50
Method: This assay measures the activity of the compounds at GSK33 (Glycogen synthase kinase-3 beta).
The test compounds were screened in 1% DMSO (final) in the well. For 10 point titrations, 3-fold serial dilutions are conducted from the starting concentration of 10 PM.
Bar-coded Corning, low volume NBS, black 384-well plate • 1. 2.5 μL—4× Test Compound or 100 nL 100× plus 2.4 μL kinase buffer • 2. 5 μL—2× Peptide/Kinase Mixture • 3. 2.5 μL—4×ATP Solution • 4. 30-second plate shake • 5. 60-minute Kinase Reaction incubation at room temperature • 6. 5 μL—Development Reagent Solution • 7. 30-second plate shake • 8. 60-minute Development Reaction incubation at room temperature • 9. Read on fluorescence plate reader and analyse the data
In step 2, the 2×GSK3β (GSK3 beta)/Ser/Thr (Glycogen synthase kinase-3 beta/Serine/Threonine) 09 mixture is prepared in 50 mM HEPES (4-(2-hydroxyethyl)-1-piperazineethanesulfonic acid) pH 7.5, 0.01% BRIJ-35, 10 mM MgCl2, 1 mM EGTA (egtazic acid). The final 10 μL Kinase Reaction consists of 0.22-0.92 ng GSK3β (GSK3 beta) and 2 PM Ser/Thr 09 in 50 mM HEPES pH 7.5, 0.01% BRIJ-35, 10 mM MgCl2, 1 mM EGTA.
In step 3 the ATP Solution is diluted to a 4× working concentration in Kinase Buffer (50 mM HEPES pH 7.5, 0.01% BRIJ-35, 10 mM MgCl2, 1 mM EGTA).
In Step 6 the Development Reagent is diluted 1:512 in Development Buffer (10× Novel PKC Lipid Mix: 2 mg/mL Phosphatidyl Serine, 0.2 mg/mL DAG in 20 mM HEPES, pH 7.4, 0.3% CHAPS).
SelectScreen® Kinase Profiling Service uses XLfit from IDBS. The dose response curve is curve fit to model number 205 (sigmoidal dose-response model).

Sequence of GSK3β (Glycogen synthase kinase-3 beta) (P49841 whole entry): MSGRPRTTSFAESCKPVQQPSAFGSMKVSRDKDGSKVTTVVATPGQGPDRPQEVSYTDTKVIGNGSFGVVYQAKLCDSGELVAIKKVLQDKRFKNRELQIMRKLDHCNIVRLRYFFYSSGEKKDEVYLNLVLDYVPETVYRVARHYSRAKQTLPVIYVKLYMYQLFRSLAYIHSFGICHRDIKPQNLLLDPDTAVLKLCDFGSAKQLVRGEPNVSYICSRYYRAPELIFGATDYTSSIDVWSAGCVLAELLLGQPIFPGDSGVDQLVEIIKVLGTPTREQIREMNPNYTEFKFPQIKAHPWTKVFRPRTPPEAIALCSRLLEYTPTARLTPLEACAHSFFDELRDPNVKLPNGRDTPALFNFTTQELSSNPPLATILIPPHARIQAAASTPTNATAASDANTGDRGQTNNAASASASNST
T2 sequence (Q12809 whole entry): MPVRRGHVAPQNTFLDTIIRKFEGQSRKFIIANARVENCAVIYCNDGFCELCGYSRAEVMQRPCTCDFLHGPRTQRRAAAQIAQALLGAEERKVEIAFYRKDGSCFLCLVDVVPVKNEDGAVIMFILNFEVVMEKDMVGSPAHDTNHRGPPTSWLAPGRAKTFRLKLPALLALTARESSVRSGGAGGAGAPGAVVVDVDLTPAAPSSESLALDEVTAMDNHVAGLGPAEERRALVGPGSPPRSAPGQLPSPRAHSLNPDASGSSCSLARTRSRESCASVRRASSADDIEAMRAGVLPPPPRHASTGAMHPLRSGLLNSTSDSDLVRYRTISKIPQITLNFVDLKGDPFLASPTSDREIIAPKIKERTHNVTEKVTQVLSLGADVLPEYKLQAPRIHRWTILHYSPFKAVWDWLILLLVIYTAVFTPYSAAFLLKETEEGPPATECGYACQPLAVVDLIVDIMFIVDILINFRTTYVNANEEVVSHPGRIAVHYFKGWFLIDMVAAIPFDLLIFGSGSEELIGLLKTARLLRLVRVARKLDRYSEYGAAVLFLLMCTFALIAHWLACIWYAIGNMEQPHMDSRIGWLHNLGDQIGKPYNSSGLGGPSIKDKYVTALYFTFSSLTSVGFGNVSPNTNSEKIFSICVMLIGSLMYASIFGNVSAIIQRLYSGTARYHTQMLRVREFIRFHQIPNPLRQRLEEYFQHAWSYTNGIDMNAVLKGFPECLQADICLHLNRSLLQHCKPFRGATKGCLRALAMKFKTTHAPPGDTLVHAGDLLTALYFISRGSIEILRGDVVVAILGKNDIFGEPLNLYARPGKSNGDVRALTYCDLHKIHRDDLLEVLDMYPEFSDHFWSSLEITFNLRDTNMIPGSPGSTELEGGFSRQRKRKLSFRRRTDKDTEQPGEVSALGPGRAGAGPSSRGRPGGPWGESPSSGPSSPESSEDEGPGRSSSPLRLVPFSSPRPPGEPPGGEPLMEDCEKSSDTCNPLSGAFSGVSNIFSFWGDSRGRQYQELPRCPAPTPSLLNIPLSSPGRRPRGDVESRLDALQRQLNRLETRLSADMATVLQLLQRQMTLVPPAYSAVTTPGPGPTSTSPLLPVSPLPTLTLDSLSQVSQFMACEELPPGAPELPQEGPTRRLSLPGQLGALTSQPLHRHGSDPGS
T1 sequence (Q8NBP7 with tags, fused parts or gaps V474I/G670E): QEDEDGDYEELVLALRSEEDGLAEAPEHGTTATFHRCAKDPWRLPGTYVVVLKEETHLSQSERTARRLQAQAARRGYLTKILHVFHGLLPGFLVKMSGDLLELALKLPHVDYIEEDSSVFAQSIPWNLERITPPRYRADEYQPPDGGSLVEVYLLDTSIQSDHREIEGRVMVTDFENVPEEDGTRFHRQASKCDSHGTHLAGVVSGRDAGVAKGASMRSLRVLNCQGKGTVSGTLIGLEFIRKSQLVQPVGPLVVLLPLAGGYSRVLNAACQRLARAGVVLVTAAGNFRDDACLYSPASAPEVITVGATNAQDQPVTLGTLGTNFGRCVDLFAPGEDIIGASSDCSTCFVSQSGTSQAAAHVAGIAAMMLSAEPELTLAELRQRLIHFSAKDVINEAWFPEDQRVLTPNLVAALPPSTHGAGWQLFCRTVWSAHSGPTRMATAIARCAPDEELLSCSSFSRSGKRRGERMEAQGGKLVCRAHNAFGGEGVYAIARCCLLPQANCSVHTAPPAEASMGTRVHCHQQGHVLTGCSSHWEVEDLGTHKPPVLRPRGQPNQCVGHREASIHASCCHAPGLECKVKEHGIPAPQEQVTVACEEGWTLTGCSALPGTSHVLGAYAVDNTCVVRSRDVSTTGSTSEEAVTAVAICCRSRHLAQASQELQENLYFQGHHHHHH

SMILES | pIC50 (PCSK9 [1]) | pIC50 [2] | pEC50 (PCSK9 [3]) | pIC50 [4]
O=C(NC1COC1)c1cnc(N[C@H]2CC[C@H](Nc3ccc(-n4cccc(C(F)(F)F)c4=O)cn3)C2)nn1 [Example 161, N-(Oxetan-3-yl)-3-(((1S,3S)-3-((2-oxo-3-(trifluoromethyl)-2H-[1,3′-bipyridin]-6′-yl)amino)cyclopentyl)amino)-1,2,4-triazine-6-carboxamide] | 8.42 | < 4.40 | 7.00 | < 5.00
O=c1ccc(-c2cn[nH]c2)cn1-c1ccc(N[C@H]2CC[C@H](Nc3ncc(C4CC4)nn3)C2)nc1 [Example 123, 6′-(((1S,3S)-3-((6-Cyclopropyl-1,2,4-triazin-3-yl)amino)cyclopentyl)amino)-5-(1H-pyrazol-4-yl)-2H-[1,3′-bipyridin]-2-one] | 8.85 | < 4.40 | 7.00 | 5.05
Cc1cnc(N[C@H]2CC[C@H](Nc3ccc(-n4c(=O)n(C)c5cc(C#N)ccc54)cn3)C2)nn1 [Example 211, 3-Methyl-1-(6-(((1S,3S)-3-((6-methyl-1,2,4-triazin-3-yl)amino)cyclopentyl)amino)pyridin-3-yl)-2-oxo-2,3-dihydro-1H-benzo[d]imidazole-5-carbonitrile] | 8.85 | 4.78 | 7.00 | < 5.00
Cc1cnc(N[C@H]2CC[C@H](Nc3ccc(-n4cc(OC(F)F)ccc4=O)cn3)C2)nn1 [Example 185, 5-(Difluoromethoxy)-6′-(((1S,3S)-3-((6-methyl-1,2,4-triazin-3-yl)amino)cyclopentyl)amino)-2H-[1,3′-bipyridin]-2-one] | 7.89 | < 4.40 | 6.70 | 5.62
Cc1ccc(=O)n(-c2ccc(N[C@H]3CC[C@H](Nc4ncc(C(=O)NC5COC5)nn4)C3)nc2)c1 [Example 156, 3-(((1S,3S)-3-((5-Methyl-2-oxo-2H-[1,3′-bipyridin]-6′-yl)amino)cyclopentyl)amino)-N-(oxetan-3-yl)-1,2,4-triazine-6-carboxamide] | 7.85 | < 4.40 | 7.00 | < 5.00
Cc1cnc(N[C@H]2CC[C@H](Nc3ccc(-n4c(=O)n(C)c5cc(C#N)cnc54)cn3)C2)nn1 [Example 214, 1-Methyl-3-(6-(((1S,3S)-3-((6-methyl-1,2,4-triazin-3-yl)amino)cyclopentyl)amino)pyridin-3-yl)-2-oxo-2,3-dihydro-1H-imidazo[4,5-b]pyridine-6-carbonitrile] | 8.47 | < 4.40 | 6.15 | < 5.00
Cn1c(=O)n(-c2ccc(N[C@H]3CC[C@H](Nc4ncc(C5CC5)nn4)C3)nc2)c2cc(P(C)(C)=O)ccc21 [Example 125, 3-(6-(((1S,3S)-3-((6-Cyclopropyl-1,2,4-triazin-3-yl)amino)cyclopentyl)amino)pyridin-3-yl)-5-(dimethylphosphoryl)-1-methyl-1,3-dihydro-2H-benzo[d]imidazol-2-one] | 8.57 | < 4.40 | 7.00 | < 5.00
Cc1cnc(N[C@H]2CC[C@H](Nc3ccc(-n4cccc(C#N)c4=O)cn3)C2)nn1 [Example 136, 6′-(((1S,3S)-3-((6-Methyl-1,2,4-triazin-3-yl)amino)cyclopentyl)amino)-2-oxo-2H-[1,3′-bipyridine]-3-carbonitrile] | 8.52 | < 4.40 | 6.70 | < 5.00
Cc1cnc(N[C@H]2CC[C@H](Nc3ccc(-n4nccc(OC(F)F)c4=O)cn3)C2)nn1 [Example 281, 4-(Difluoromethoxy)-2-(6-(((1S,3S)-3-((6-methyl-1,2,4-triazin-3-yl)amino)cyclopentyl)amino)pyridin-3-yl)pyridazin-3(2H)-one] | 8.60 | < 4.40 | 6.52 | < 5.00
O=c1ccc(OC(F)F)cn1-c1ccc(N[C@H]2CC[C@H](Nc3ncc(C4CC4)nn3)C2)nc1 [Example 166, 6′-(((1S,3S)-3-((6-Cyclopropyl-1,2,4-triazin-3-yl)amino)cyclopentyl)amino)-5-(difluoromethoxy)-2H-[1,3′-bipyridin]-2-one] | 8.14 | 4.42 | 6.52 | 5.66
COc1cccn(-c2ccc(N[C@H]3CC[C@H](Nc4ncc(C(=O)NC5COC5)nn4)C3)nc2)c1=O [Example 153, 3-(((1S,3S)-3-((3-Methoxy-2-oxo-2H-[1,3′-bipyridin]-6′-yl)amino)cyclopentyl)amino)-N-(oxetan-3-yl)-1,2,4-triazine-6-carboxamide] | 8.48 | < 4.40 | 7.00 | < 5.00
Cc1cnc(N[C@H]2CC[C@H](Nc3ccc(-n4cc(-c5cn[nH]c5)ccc4=O)cn3)C2)nn1 [Example 202, 6′-(((1S,3S)-3-((6-Methyl-1,2,4-triazin-3-yl)amino)cyclopentyl)amino)-5-(1H-pyrazol-4-yl)-2H-[1,3′-bipyridin]-2-one] | 8.43 | < 4.40 | 7.00 | 5.12
COc1ccc(=O)n(-c2ccc(NCC(CCO)CNc3ncc(C)nn3)nc2)c1 (racemic) [Example 317, rac-6′-((4-Hydroxy-2-(((6-methyl-1,2,4-triazin-3-yl)amino)methyl)butyl)amino)-5-methoxy-2H-[1,3′-bipyridin]-2-one] | 5.35 | < 4.40 | < 6.10 | –

Source: patent US20240228469A1, “PCSK9 INHIBITORS AND METHODS OF USE THEREOF” (AstraZeneca AB, priority 2022, published 2024)
